The text below walks through data of patent US20190142893A1, “Electron, Radical, or Reactive Oxygen Species-Scavenging Agent Based Therapy of Inborn Errors of Fatty Acid Oxidation and Oxidative Phosphorylation” (University of Pittsburgh- Of the Commonwealth System of …, priority 2016, published 2019).

Common to all, as to type: cell-based, human
The subject of experiment [1] is VLCAD deficient fibroblasts (Fb671, Fb773, Fb834). Description: Oxygen consumption rate (Seahorse analyzer) in VLCAD deficient fibroblasts. To be noted: FB671, media without glucose, FIG. 25. On the procedure: Oxygen consumption assay: Fibroblasts controls and from patients with VLCAD deficiency were cultivated in normal media or in the absence of glucose for 72 hours. The oxygen consumption was monitored by a Seahorse XFe96 Extracellular Flux Analyzer (Seahorse Bioscience, Billerica, Mass.).
(§1) Cells were grown in Dulbecco's Modified Eagle Medium (DMEM), Corning Life Sciences, Manassas, Va., containing high glucose levels or in DMEM devoid of glucose for 48-72 h. Both media were supplemented with glutamine, 10% fetal bovine serum, 4 mM glutamine, 100 IU penicillin and 100 μg/mL streptomycin, Corning Life Sciences, Manassas, Va.
(§2) Cells were treated with different compounds in different concentrations 24 or 48 h before the assays. The compounds used were N-acetylcysteine (1 mM), bezafibrate (600 μM), resveratrol (75 μM), MiloQ (200 nM), trolox (1 mM) and JP4-039 (40 and 200 nM).
Oxygen consumption rate (OCR) was measured with a Seahorse XF^c96 Extracellular Flux Analyzer (Seahorse Bioscience, Billerica, Mass.). The apparatus contains a fluorophore that is sensitive to changes in oxygen concentration, which enables it to accurately measure the rate at which cytochrome c oxidase (complex IV) reduces one O2 molecule to two H2O molecules during OXPHOS. Cells were seeded in 96-well Seahorse tissue culture microplates in growth media at a density of 80,000 cells per well. To ensure equal cell numbers, cells were seeded in cell culture plates pre-coated with Cell-Tak (BD Biosciences, San Jose, Calif.). All cell lines were measured with four to six wells per cell line. Then, the entire experiments were repeated. Before running the Seahorse assay, cells were incubated for 1 h without CO2 in unbuffered DMEM. Initial OCR was measured to establish a baseline (basal respiration). Reserve capacity was also determined after the injection of 300 nM carbonyl cyanide 4-(trifluoromethoxy) phenylhydrazone (FCCP), Seahorse XF Cell Mito Stress Test Kit, Santa Clara, Calif. Data were reported in pmol/min for OCR.

In experiment [2] the test system is FAO deficient fibroblasts. Description: Superoxide production (MitoSOX dye) in FAO deficient fibroblasts. The following applies: FAO deficient fibroblasts cultured in absence of glucose 48-72 h. As for the experimental part: FAO deficient fibroblasts were cultured in the absence of glucose for 48-72 h to shift to fatty acids as the energy source. Oxygen consumption rate (OCR) was monitored by a Seahorse XF analyzer (See FIG. 23). Mitochondrial mass was examined by MitoTracker Green and ROS generation by MitoSOX dye. Protein immunocontent was evaluated by western blotting. […] Testing of XJB-5-131 was conducted essentially as described for JP4-039.
(§3) Cell suspension containing 1×10^5 cells per mL were incubated for 25 min at 37° C. with 150 nM Mitotracker Green, Invitrogen, Grand Island, N.Y., for mitochondrial mass evaluation or for 15 min at 37° C. with 5 μM MitoSOX Red, Invitrogen, Grand Island, N.Y., for superoxide production measurement. After incubation, 10,000 cells samples were analyzed in a Becton Dickinson FACSAria II flow cytometer, BD Biosciences, San Jose, Calif.

Experiment [3] deals with VLCAD deficient fibroblasts (Fb671, Fb773, Fb834, Fb833). Description: Superoxide production (MitoSOX Red, flow cytometry) in VLCAD deficient fibroblasts. To be noted: patient cells, media without glucose 48 h, after 24 h of treatment; FIGS. 27 and 28. On the procedure: ROS generation: control and patient fibroblasts were cultivated in normal media or without glucose for 48 hours, then incubated for 15 min with MitoSox Red (Life Technologies). Fluorescence was evaluated by flow cytometry.
as §1, §2, §3
Background: Flow cytometry measures light scatter and fluorescence of single cells or particles in a stream.

Regarding `CC(C)C[C@@H](/C=C/[C@H](Cc1ccccc1)C(=O)N1CCC[C@H]1C(=O)N[C@H](C(=O)N[C@@H](CCCNC(=O)OCc1ccccc1)C(=O)NC1CC(C)(C)N([O])C(C)(C)C1)C(C)C)NC(=O)OC(C)(C)C` [XJB-5-131], the “Reserved capacity (oxygen consumption)” value in experiment [1] (40 nM) is “improves”. In experiment [1] (200 nM), the “Basal respiration (oxygen consumption)” value was “improved” and the “Reserved capacity (oxygen consumption)” value was “improves”. In experiment [2], the Increased superoxide production entry was “prevented”.
Regarding `CC(=O)N[C@@H](CS)C(=O)O` [N-acetylcysteine], the “Superoxide generation (increased levels in VLCAD deficient cells)” value in experiment [3] is listed as “JP4-039 was the only antioxidant able to decrease superoxide generation”.
Same read-out and setting: in the case of `Oc1ccc(C=Cc2cc(O)cc(O)c2)cc1` [resveratrol] it was “JP4-039 was the only antioxidant able to decrease superoxide generation”; in that of `COC1=C(OC)C(=O)C(CCCCCCCCCC[P+](c2ccccc2)(c2ccccc2)c2ccccc2)=C(C)C1=O` [MitoQ], “JP4-039 was the only antioxidant able to decrease superoxide generation”.
